# Marks after values point to notes of the source that are not given here.
# Test system: patients with nocturia
# Assay: Non-randomized trial treatment with loxoprofen in patients with nocturia; voids/night outcome assessed as excellent, improved, unchanged or worsened
# Type: in vivo, human
# Protocol: One hundred forty one patients (135 men) aged 49 to 89 (mean 70.5) years with LUTS and =2 voids per night were enrolled in the study. Their main diseases were BPH (n=93), prostate cancer (n=24) and neurogenic bladder (NB) (n=13); 11 had other diseases. […] Patients who had asthma, gastrointestinal disorders, renal dysfunction and allergies to loxoprofen were excluded. Patients took a single 60 mg loxoprofen tablet prior to sleeping at night for 4 to 14 days initially concurrently with their treatments for their main diseases. Numbers of voids/night as reported by each patient were evaluated and treatment outcome was assessed as either excellent (nocturia disappeared or decreased by =2 voids/night), improved (nocturia decreased by 1 void/night), unchanged or worsened (nocturia increased).
# [1] = 60 mg prior to sleeping, 108 patients who did not respond to anticholinergic drugs
# [2] = 60 mg prior to sleeping, Antidiuretic hormone non-responder, 3 patients
# [3] = 60 mg prior to sleeping, Antidiuretic hormone responder, 6 patients
# [4] = 60 mg prior to sleeping, BPH, 93 patients
# [5] = 60 mg prior to sleeping, BPH, 93 patients, listed as Loxoprofen
# [6] = 60 mg prior to sleeping, Female, 6
# [7] = 60 mg prior to sleeping, Insomnia, 20 patients
# [8] = 60 mg prior to sleeping, Male, 135
# [9] = 60 mg prior to sleeping, Neurogenic bladder, 13 patients
# [10] = 60 mg prior to sleeping, Neurogenic bladder, 13 patients, listed as Loxoprofen
# [11] = 60 mg prior to sleeping, Nocturnal polyuria, 7 patients
# [12] = 60 mg prior to sleeping, Post-TURP, 18 patients
# [13] = 60 mg prior to sleeping, Post-thermotherapy, 19 patients
# [14] = 60 mg prior to sleeping, Prostate cancer, 24 patients
# [15] = 60 mg prior to sleeping, Prostate cancer, 24 patients, listed as Loxoprofen
# [16] = 60 mg prior to sleeping, Prostate cancer, hormone therapy, 15 patients
# [17] = 60 mg prior to sleeping, Prostate cancer, post-prostatectomy (radical), 5 patients
# [18] = 60 mg prior to sleeping, Prostate cancer, post-radiation, 4 patients
# [19] = 60 mg prior to sleeping, Prostatodynia, 5 patients
# [20] = 60 mg prior to sleeping, Urinary frequency with UUI, 10 patients
# [21] = 60 mg prior to sleeping, Urinary frequency without UUI, 9 patients
# [22] = 60 mg prior to sleeping, aged 49 to 59 years
# [23] = 60 mg prior to sleeping, aged 60 to 69 years
# [24] = 60 mg prior to sleeping, aged 70 to 79 years
# [25] = 60 mg prior to sleeping, aged 80 to 86 years
# [26] = 60 mg prior to sleeping, frequency at baseline 2 and 2-3, 56 patients
# [27] = 60 mg prior to sleeping, frequency at baseline 3-4, 59 patients
# [28] = 60 mg prior to sleeping, frequency at baseline 4-5, 15 patients
# [29] = 60 mg prior to sleeping, frequency at baseline >5, 11 patients
# [30] = 60 mg prior to sleeping, non-responders to Anticholinergics, 32 patients
# [31] = 60 mg prior to sleeping, non-responders to Hypnotics, 42 patients
# [32] = 60 mg prior to sleeping, non-responders to TCA (tricyclic antidepressants), 76 patients
smiles,measurement,setting,value
"CC(C(=O)O)c1ccc(CC2CCCC2=O)cc1 (centres unmarked) [loxoprofen, loxoprofen sodium]",Onset of changes in patients' symptoms,60 mg prior to sleeping,starting from the first night of therapy
same,Excellent responder rate,"60 mg prior to sleeping, 85 patients with more frequent nocturia than 2 to 3 episodes at baseline",46%
same,Excellent rate,[1],44%
same,Improved rate,[1],38%
same,"Nocturia improved or disappeared, % of patients overall","60 mg prior to sleeping, 141 patients",72%
same,"Improved, % of patients",[2],(33%)
same,"Improved, no. of patients",[2],1
same,"Unchanged, % of patients",[2],67%
same,"Unchanged, no. of patients",[2],2
same,"Excellent, % of patients",[3],(17%)
same,"Excellent, no. of patients",[3],1
same,"Improved, % of patients",[3],(67%)
same,"Improved, no. of patients",[3],4
same,"Unchanged, % of patients",[3],17%
same,"Unchanged, no. of patients",[3],1
same,"Excellent, % of patients",[4],(39%)
same,"Excellent, no. of patients",[4],36^
same,"Improved, % of patients",[4],(34%)
same,"Improved, no. of patients",[4],32^
same,"Unchanged, % of patients",[4],(23%)
same,"Unchanged, no. of patients",[4],21^
same,"Worsened, % of patients",[4],(4%)
same,"Worsened, no. of patients",[4],4
same,"Excellent, % of patients",[5],39%
same,"Improved, % of patients",[5],34%
same,"Excellent, % of patients",[6],(33%)
same,"Excellent, no. of patients",[6],2
same,"Improved, % of patients",[6],(33%)
same,"Improved, no. of patients",[6],2
same,"Unchanged, % of patients",[6],(33%)
same,"Unchanged, no. of patients",[6],2
same,"Excellent, % of patients",[7],(35%)
same,"Excellent, no. of patients",[7],7^
same,"Improved, % of patients",[7],(40%)
same,"Improved, no. of patients",[7],8^
same,"Unchanged, % of patients",[7],(20%)
same,"Unchanged, no. of patients",[7],4^
same,"Worsened, % of patients",[7],(5%)
same,"Worsened, no. of patients",[7],1
same,"Excellent, % of patients","60 mg prior to sleeping, Insomnia, 20 patients, listed as Loxoprofen",35%
same,"Excellent, no. of patients","60 mg prior to sleeping, Interstitial cystitis, 2 patients",2^¶
same,"Excellent, % of patients",[8],(36%)
same,"Excellent, no. of patients",[8],49
same,"Improved, % of patients",[8],(36%)
same,"Improved, no. of patients",[8],48
same,"Unchanged, % of patients",[8],(24%)
same,"Unchanged, no. of patients",[8],32
same,"Worsened, % of patients",[8],(4%)
same,"Worsened, no. of patients",[8],6
same,"Excellent, % of patients",[9],(69%)
same,"Excellent, no. of patients",[9],9^‡
same,"Improved, % of patients",[9],(8%)
same,"Improved, no. of patients",[9],1^¶
same,"Unchanged, % of patients",[9],(15%)
same,"Unchanged, no. of patients",[9],2^¶
same,"Worsened, % of patients",[9],(8%)
same,"Worsened, no. of patients",[9],1
same,"Excellent, % of patients",[10],69%
same,"Improved, % of patients",[10],8%
same,"Excellent, % of patients",[11],(14%)
same,"Excellent, no. of patients",[11],1^
same,"Improved, % of patients",[11],(71%)
same,"Improved, no. of patients",[11],5^
same,"Unchanged, % of patients",[11],(14%)
same,"Unchanged, no. of patients",[11],1^
same,"Excellent, % of patients","60 mg prior to sleeping, Nocturnal polyuria, 7 patients, listed as Loxoprofen",14%
same,"Excellent, no. of patients",[12],8
same,"Improved, % of patients",[12],(27%)
same,"Improved, no. of patients",[12],5
same,"Unchanged, % of patients",[12],22%
same,"Unchanged, no. of patients",[12],4
same,"Worsened, % of patients",[12],6%
same,"Worsened, no. of patients",[12],1
same,"Excellent, no. of patients",[13],8
same,"Improved, % of patients",[13],(26%)
same,"Improved, no. of patients",[13],5
same,"Unchanged, % of patients",[13],32%
same,"Unchanged, no. of patients",[13],6
same,"Excellent, % of patients",[14],(29%)
same,"Excellent, no. of patients",[14],7^
same,"Improved, % of patients",[14],(33%)
same,"Improved, no. of patients",[14],8^
same,"Unchanged, % of patients",[14],(33%)
same,"Unchanged, no. of patients",[14],8^
same,"Worsened, % of patients",[14],(4%)
same,"Worsened, no. of patients",[14],1
same,"Excellent, % of patients",[15],29%
same,"Improved, % of patients",[15],33%
same,"Excellent, no. of patients",[16],5^
same,"Improved, no. of patients",[16],3^
same,"Unchanged, no. of patients",[16],6^
same,"Worsened, no. of patients",[16],1
same,"Excellent, no. of patients",[17],1^
same,"Improved, no. of patients",[17],2^
same,"Unchanged, no. of patients",[17],2^
same,"Excellent, no. of patients",[18],1^
same,"Improved, no. of patients",[18],3^
same,"Excellent, % of patients",[19],(20%)
same,"Excellent, no. of patients",[19],1^
same,"Improved, % of patients",[19],(40%)
same,"Improved, no. of patients",[19],2^
same,"Unchanged, % of patients",[19],(20%)
same,"Unchanged, no. of patients",[19],1^
same,"Worsened, % of patients",[19],(20%)
same,"Worsened, no. of patients",[19],1
same,"Worsened, no. of patients","60 mg prior to sleeping, Total 141",6
same,"Excellent, % of patients",[20],(20%)
same,"Excellent, no. of patients",[20],2^
same,"Improved, % of patients",[20],(50%)
same,"Improved, no. of patients",[20],5^†
same,"Unchanged, % of patients",[20],(30%)
same,"Unchanged, no. of patients",[20],3^¶
same,"Excellent, % of patients","60 mg prior to sleeping, Urinary frequency with UUI, 10 patients, listed as Loxoprofen",20%
same,"Excellent, % of patients",[21],(44%)
same,"Excellent, no. of patients",[21],4^¶
same,"Improved, % of patients",[21],(22%)
same,"Improved, no. of patients",[21],2^
same,"Unchanged, % of patients",[21],(22%)
same,"Unchanged, no. of patients",[21],2^¶
same,"Worsened, % of patients",[21],(11%)
same,"Worsened, no. of patients",[21],1
same,"Excellent, % of patients","60 mg prior to sleeping, Urinary frequency without UUI, 9 patients, listed as Loxoprofen",44%
same,"Excellent responses, % of patients",[22],50%
same,"Excellent responses, patients/group size",[22],4/8
same,"Excellent responses, % of patients",[23],40%
same,"Excellent responses, patients/group size",[23],17/43
same,"Excellent responses, % of patients",[24],35%
same,"Excellent responses, patients/group size",[24],23/65
same,"Excellent responses, % of patients",[25],28%
same,"Excellent responses, patients/group size",[25],7/25
same,"Excellent, % of patients",[26],(21%)
same,"Excellent, no. of patients",[26],12*^
same,"Improved, % of patients",[26],(41%)
same,"Improved, no. of patients",[26],23^†
same,"Unchanged, % of patients",[26],(34%)
same,"Unchanged, no. of patients",[26],19^†
same,"Worsened, % of patients",[26],(4%)
same,"Worsened, no. of patients",[26],2
same,"Excellent, % of patients","60 mg prior to sleeping, frequency at baseline 2 and 2-3, 56 patients, listed as Loxoprofen",21%
same,"Excellent, % of patients",[27],(47%)
same,"Excellent, no. of patients",[27],28^†
same,"Improved, % of patients",[27],(31%)
same,"Improved, no. of patients",[27],18^†
same,"Unchanged, % of patients",[27],(17%)
same,"Unchanged, no. of patients",[27],10^†
same,"Worsened, % of patients",[27],(5%)
same,"Worsened, no. of patients",[27],3
same,"Excellent, % of patients",[28],(40%)
same,"Excellent, no. of patients",[28],6^
same,"Improved, % of patients",[28],(40%)
same,"Improved, no. of patients",[28],6^
same,"Unchanged, % of patients",[28],(20%)
same,"Unchanged, no. of patients",[28],3^
same,"Excellent, % of patients",[29],(45%)
same,"Excellent, no. of patients",[29],5^†
same,"Improved, % of patients",[29],(27%)
same,"Improved, no. of patients",[29],3^
same,"Unchanged, % of patients",[29],(18%)
same,"Unchanged, no. of patients",[29],2^
same,"Worsened, % of patients",[29],(5%)
same,"Worsened, no. of patients",[29],1
same,"Excellent, % of patients",[30],(44%)
same,"Excellent, no. of patients",[30],14
same,"Improved, % of patients",[30],(38%)
same,"Improved, no. of patients",[30],12
same,"Unchanged, % of patients",[30],19%
same,"Unchanged, no. of patients",[30],6
same,"Worsened, % of patients",[30],3%
same,"Worsened, no. of patients",[30],1
same,"Excellent, no. of patients",[31],13
same,"Improved, no. of patients",[31],16
same,"Unchanged, % of patients",[31],26%
same,"Unchanged, no. of patients",[31],11
same,"Worsened, % of patients",[31],5%
same,"Worsened, no. of patients",[31],2
same,"Excellent, % of patients",[32],(39%)
same,"Excellent, no. of patients",[32],30
same,"Improved, % of patients",[32],(37%)
same,"Improved, no. of patients",[32],28
same,"Unchanged, % of patients",[32],22%
same,"Unchanged, no. of patients",[32],17
same,"Worsened, % of patients",[32],5%
same,"Worsened, no. of patients",[32],4
same,"Excellent effects, patients","60 mg prior to sleeping, patients who previously responded or were refractory to antidiuretic hormone",one of nine patients
same,"Side effects such as dry mouth, constipation and habituation","human, in vivo",does not produce side effects
same,Quality of life,patients whose nocturia improved,noticeable improvements in their quality of life
same,Effect on voiding power,patients with BOO,does not decrease voiding power
same,Time to first voiding,some patients of the unchanged group,delayed by several hours
